Data set [1] has as its system hepatitis C virus genotype 1b Con1 replicon. In words: HCV replicon assay, replicon RNA by RT-qPCR in Huh 9-13 cells. It counts as cell-based. Conditions: 50% inhibition of HCV replicon replication, 3 dose-response curves.
Protocol: For the evaluation of antiviral effects, assay medium was aspirated and the plates with dry monolayer were stored at −80° C. awaiting extraction. Following thawing of the plates at room temperature, the cell monolayer was lysed with 100 μl of cell-to-cDNA lysis buffer (Invitrogen). Lysis of the cells was allowed to proceed for 10 min at room temperature after which all liquid was transferred to a PCR plate (Axygen). The PCR plate was incubated for 15 min at 75° C. […] The lysate was diluted 1:2 with RNase/DNase-free water, after which 5 μl was transferred to the real-time PCR plate (Applied Biosystems).
Replicon RNA content was quantified using a real-time quantitative one-step RT-PCR method (RT-qPCR): Low Rox One-Step RT-qPCR master mix, Abgene). […] The fluorogenic probe was 5′-[sequence]-3′. The analysis of the samples were performed using a SDS7500F (Applied Biosystems, standard thermocycling profile: 30 min at 48° C., 10 min at 95° C., 40 cycles of 15 sec at 95° C. and 1 min at 60° C.) after which replicon RNA quantities were converted to percentage of untreated controls.
Data set [2] in a line: Cytostatic/cytotoxic effect, MTT (MTS) assay in Huh 9-13 cells. It counts as cell-based. Conditions: human, Huh 9-13 cells containing the HCV genotype 1b Con1 replicon, metabolic activity reduced to 50% of untreated cells. An excerpt:
Assays used Huh 9-13 containing the hepatitis C virus genotype 1b Con1 replicon (Lohmann et al. 2001. J. Virol. 75:1437-1449; and Lohmann et al. 1999. Science. 285:110-113). Cells were sub-cultured in cell growth medium DMEM supplemented with 10% FCS, 1% non-essential amino acids, 1% penicillin/streptomycin and 2% Geneticin (Invitrogen) at a ratio of 1:4-1:5 and grown for 3-4 days in 75 cm^2 tissue culture flasks (Techno Plastic Products), were harvested and seeded in assay medium (DMEM, 10% FCS, 1% non-essential amino acids, 1% penicillin/streptomycin) at a density of 5 000 cells/well (100 μl/well) in 96-well tissue culture microtiter plates (Falcon, Beckton Dickinson) for evaluation of cytostatic/cytotoxic and antiviral effect. The microtiter plates were incubated overnight (37° C., 5% CO2, 95-99% relative humidity), yielding a non-confluent cell monolayer.
Cell density and cytostatic effects were estimated in parallel cultures in regular 96-well plates (Beckton-Dickinson) using the MTT assay (CellTiter 96 AQueous Non-Radioactive Cell Proliferation Assay, Promega). In this assay, 3-(4,5-dimethyl-thiazol-2-yl)-5-(3-carboxymethoxy-phenyl)-2-(4-sulfophenyl)-2H-tetrazolium (MTS) is bioreduced to a formazan that is quantified at 498 nm in a plate reader. Formazan production is directly correlated with number of life cells. Absorbance was measured at a wavelength of 498 nm (Safire^2, Tecan) and optical densities (OD values) were converted to percentage of untreated controls.
The compounds were dissolved in DMSO at a concentration of 4 mmole/L. Stock solutions were immediately used to set up the experiments. The compounds were tested at 24 different concentrations ranging from 0.0001 μmole/L to 100 μmole/L. The highest concentration of DMSO in the assay was determined to be 2.5% (at 100 μM final concentration of the compound). During the assay setup, the DMSO percentage decreased concomitantly with decrease in concentration of the compound.
The EC50 (value derived from the dose-response curve) represents the concentration at which 50% inhibition of viral replication is observed. The CC50 (value derived from the dose-response curve) represents the concentration at which the metabolic activity of the cells is reduced to 50% of the metabolic activity of untreated cells.
Results from these experiments permitted calculation of EC50±SD (standard deviation or Std. Dev.), which is the effective concentration required to inhibit HCV replicon replication by 50%, and of CC50±SD (whenever possible), which is the concentration required that inhibits the proliferation of exponentially growing cells by 50%. EC50 and CC50±SD values were calculated respectively as the median of all the EC50, or CC50 values derived from the 3 individual dose-response curves. The selectivity index (SI), indicative of the therapeutic window of the compound was calculated as the ratio between CC50 and EC50.
(Replicon systems follow genome replication, usually without infectious particles.)

For data set [3], the system named is Concanavalin-A-induced T-cell proliferation. In words: Concanavalin-A-induced T-cell proliferation assay (immunosuppression). The class given is cell-based. As to conditions: inhibition of Concanavalin-A-induced T-cell proliferation. The method, then: To determine whether the cycloundecadepsipepide compounds of the present invention have a non-immunosuppression activity, experiments were carried out that compared the dose-dependent inhibition of Concanavalin-A-induced T-cell proliferation (see Table 2).
The method of the assays were performed as described by Dayton et al. (1992. Mol. Pharmacol. 41. 671-676) and Mishell et al. (1980. Cell proliferation in selected methods in cellular immunology, V, XXIX, W.H. Freeman Co., San Francisco, Calif. 153-160).

Data set [4] addresses bile salt export pump (BSEP) (Homo sapiens, UniProt O95342). As to conditions: for BSEP fold Debio 025: IC50 ratio compared to Debio 025. How it is done: (§1) To determine whether the cycloundecadepsipeptide compounds of the present invention interact with hepatic transporters, experiments were carried out that compared the concentration-dependent inhibition towards the multidrug resistance associated protein 2 (MRP2), the organic anion transporting polypeptide 1B1 (OATP1B1), the bile salt export pump (BSEP) and the sodium-taurocholate cotransporting polypeptide (NTCP). These transporters are involved in the hepatobiliary circulation of endogenous compounds such as bile salts or bilirubin (for a review, see C. Pauli-Magnus et al, J. Hepatology, 2005, 43:342-357). Some of them also contribute to the elimination of xenobiotics.
(§2) MRP2 and BSEP were expressed by SOLVO Biotechnology in Spodoptera frugiperda (Sf9) ovarian cells, by infecting the insect cells with a recombinant baculovirus. The inhibition of the transport of the radioactive probe substrates (estradiol-17-beta-glucuronide and taurocholate for MRP2 and BSEP, respectively) into inside-out membrane vesicles, containing the transporter, was measured by scintillation counting.
(§3) The IC50 (defined as the concentration required for inhibiting the transport of the probe substrate by 50%, half maximal inhibitory concentration) of the compounds was derived from the concentration-response curve and compared to the IC50 of Debio 025 (IC50 ratio expressed as “fold Debio 025” in the tables).

For data set [5], the target named is multidrug resistance associated protein 2 (MRP2) (Homo sapiens, UniProt Q92887). As to conditions: for MRP2 fold Debio 025: IC50 ratio compared to Debio 025. How it is done:
as §1, §2, §3

Data set [6] deals with organic anion transporting polypeptide 1B1 (OATP1B1) (Homo sapiens, UniProt Q9Y6L6). How it is done: as §1
Sequence of organic anion transporting polypeptide 1B1 (OATP1B1) (Q9Y6L6 whole entry): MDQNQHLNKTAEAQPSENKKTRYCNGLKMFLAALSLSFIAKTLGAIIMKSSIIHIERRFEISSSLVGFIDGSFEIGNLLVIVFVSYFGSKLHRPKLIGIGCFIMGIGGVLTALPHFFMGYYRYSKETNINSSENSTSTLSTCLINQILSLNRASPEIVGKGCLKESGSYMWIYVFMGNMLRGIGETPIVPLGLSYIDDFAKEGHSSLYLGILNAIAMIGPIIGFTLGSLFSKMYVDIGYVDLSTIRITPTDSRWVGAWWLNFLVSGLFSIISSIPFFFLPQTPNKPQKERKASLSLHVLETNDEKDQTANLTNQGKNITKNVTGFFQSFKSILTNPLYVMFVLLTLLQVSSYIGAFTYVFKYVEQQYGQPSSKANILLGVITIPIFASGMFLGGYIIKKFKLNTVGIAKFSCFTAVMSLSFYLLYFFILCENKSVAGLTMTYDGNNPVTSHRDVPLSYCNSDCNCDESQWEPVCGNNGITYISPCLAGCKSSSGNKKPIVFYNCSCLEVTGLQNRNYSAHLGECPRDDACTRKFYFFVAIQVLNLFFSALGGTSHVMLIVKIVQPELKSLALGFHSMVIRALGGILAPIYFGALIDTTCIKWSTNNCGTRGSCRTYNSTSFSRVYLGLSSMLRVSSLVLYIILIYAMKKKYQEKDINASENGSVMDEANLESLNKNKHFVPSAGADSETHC
OATP1B1 and NTCP assays were performed with Chinese hamster ovary (CHO) cells expressing these human uptake transporters. The amount of the transported probe substrate (estrone-3-sulfate and taurocholate for OATP1B1 and NTCP, respectively) was determined by liquid scintillation or fluorescent photometry after cell lysis.
as §3

Data set [7] has as its target T1, sodium-taurocholate cotransporting polypeptide (NTCP) (Homo sapiens, UniProt Q14973).
T1 sequence (Q14973 1-349): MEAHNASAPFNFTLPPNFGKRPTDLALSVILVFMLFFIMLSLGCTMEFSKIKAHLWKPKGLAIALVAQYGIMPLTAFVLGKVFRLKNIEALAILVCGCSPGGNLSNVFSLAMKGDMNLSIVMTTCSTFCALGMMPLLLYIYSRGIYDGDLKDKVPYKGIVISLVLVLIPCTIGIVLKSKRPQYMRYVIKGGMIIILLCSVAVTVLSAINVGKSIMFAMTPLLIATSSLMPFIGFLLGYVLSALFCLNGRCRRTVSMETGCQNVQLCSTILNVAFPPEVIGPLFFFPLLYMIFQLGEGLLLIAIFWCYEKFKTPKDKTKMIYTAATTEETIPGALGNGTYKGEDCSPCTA
The data set is described as follows: NTCP inhibition, taurocholate uptake in CHO cells. It counts as in vitro ADME. As to conditions: for NTCP fold Debio 025: IC50 ratio compared to Debio 025.

Square brackets hold non-standard residues; d marks the D form. Peptide text beside a SMILES is read from it. MeBmt = C/C=C/C[C@@H](C)[C@@H](O)[C@H](NC)C(=O)O; NEtVal = CCN[C@H](C(=O)O)C(C)C; NMeL = CN[C@@H](CC(C)C)C(=O)O; NMeV = CN[C@H](C(=O)O)C(C)C; dHiv = CC(C)[C@@H](O)C(=O)O; NMeA = CN[C@@H](C)C(=O)O; dNMeA = CN[C@H](C)C(=O)O; Abu = CC[C@H](N)C(=O)O

Sequence of bile salt export pump (BSEP) (O95342 whole entry): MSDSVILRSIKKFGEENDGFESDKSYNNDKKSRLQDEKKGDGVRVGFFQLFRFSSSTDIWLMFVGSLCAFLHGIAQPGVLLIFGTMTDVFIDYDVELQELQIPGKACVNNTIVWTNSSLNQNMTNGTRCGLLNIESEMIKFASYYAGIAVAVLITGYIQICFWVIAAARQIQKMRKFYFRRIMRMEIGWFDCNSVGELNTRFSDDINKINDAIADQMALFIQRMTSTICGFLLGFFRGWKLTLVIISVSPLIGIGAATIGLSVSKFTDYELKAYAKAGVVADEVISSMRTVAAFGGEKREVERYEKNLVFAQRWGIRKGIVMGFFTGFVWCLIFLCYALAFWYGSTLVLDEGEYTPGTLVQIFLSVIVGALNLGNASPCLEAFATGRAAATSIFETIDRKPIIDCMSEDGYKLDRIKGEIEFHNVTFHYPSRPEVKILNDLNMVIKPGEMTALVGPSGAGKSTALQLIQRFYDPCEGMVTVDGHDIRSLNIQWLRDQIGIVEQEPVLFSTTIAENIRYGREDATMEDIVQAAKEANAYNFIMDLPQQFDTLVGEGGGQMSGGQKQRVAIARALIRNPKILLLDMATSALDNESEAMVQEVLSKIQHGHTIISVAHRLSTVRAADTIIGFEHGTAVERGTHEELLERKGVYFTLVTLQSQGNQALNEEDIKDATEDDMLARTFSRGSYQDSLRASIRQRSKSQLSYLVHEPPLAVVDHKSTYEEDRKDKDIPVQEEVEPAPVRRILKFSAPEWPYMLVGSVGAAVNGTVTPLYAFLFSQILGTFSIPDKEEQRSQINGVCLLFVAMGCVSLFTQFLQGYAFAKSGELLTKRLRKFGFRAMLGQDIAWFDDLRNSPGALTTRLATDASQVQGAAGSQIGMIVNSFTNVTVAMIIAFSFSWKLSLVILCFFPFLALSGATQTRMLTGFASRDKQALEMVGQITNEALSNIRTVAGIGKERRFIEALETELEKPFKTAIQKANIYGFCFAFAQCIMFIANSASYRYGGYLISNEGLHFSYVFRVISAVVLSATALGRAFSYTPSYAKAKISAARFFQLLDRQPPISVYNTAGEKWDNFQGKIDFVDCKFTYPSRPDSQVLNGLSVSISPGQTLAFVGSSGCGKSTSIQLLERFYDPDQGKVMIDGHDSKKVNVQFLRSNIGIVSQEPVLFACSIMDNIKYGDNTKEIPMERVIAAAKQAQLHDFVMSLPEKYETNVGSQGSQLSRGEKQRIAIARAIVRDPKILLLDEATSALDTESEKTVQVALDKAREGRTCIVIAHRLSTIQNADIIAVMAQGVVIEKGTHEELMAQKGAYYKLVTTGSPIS
Sequence of multidrug resistance associated protein 2 (MRP2) (Q92887 whole entry): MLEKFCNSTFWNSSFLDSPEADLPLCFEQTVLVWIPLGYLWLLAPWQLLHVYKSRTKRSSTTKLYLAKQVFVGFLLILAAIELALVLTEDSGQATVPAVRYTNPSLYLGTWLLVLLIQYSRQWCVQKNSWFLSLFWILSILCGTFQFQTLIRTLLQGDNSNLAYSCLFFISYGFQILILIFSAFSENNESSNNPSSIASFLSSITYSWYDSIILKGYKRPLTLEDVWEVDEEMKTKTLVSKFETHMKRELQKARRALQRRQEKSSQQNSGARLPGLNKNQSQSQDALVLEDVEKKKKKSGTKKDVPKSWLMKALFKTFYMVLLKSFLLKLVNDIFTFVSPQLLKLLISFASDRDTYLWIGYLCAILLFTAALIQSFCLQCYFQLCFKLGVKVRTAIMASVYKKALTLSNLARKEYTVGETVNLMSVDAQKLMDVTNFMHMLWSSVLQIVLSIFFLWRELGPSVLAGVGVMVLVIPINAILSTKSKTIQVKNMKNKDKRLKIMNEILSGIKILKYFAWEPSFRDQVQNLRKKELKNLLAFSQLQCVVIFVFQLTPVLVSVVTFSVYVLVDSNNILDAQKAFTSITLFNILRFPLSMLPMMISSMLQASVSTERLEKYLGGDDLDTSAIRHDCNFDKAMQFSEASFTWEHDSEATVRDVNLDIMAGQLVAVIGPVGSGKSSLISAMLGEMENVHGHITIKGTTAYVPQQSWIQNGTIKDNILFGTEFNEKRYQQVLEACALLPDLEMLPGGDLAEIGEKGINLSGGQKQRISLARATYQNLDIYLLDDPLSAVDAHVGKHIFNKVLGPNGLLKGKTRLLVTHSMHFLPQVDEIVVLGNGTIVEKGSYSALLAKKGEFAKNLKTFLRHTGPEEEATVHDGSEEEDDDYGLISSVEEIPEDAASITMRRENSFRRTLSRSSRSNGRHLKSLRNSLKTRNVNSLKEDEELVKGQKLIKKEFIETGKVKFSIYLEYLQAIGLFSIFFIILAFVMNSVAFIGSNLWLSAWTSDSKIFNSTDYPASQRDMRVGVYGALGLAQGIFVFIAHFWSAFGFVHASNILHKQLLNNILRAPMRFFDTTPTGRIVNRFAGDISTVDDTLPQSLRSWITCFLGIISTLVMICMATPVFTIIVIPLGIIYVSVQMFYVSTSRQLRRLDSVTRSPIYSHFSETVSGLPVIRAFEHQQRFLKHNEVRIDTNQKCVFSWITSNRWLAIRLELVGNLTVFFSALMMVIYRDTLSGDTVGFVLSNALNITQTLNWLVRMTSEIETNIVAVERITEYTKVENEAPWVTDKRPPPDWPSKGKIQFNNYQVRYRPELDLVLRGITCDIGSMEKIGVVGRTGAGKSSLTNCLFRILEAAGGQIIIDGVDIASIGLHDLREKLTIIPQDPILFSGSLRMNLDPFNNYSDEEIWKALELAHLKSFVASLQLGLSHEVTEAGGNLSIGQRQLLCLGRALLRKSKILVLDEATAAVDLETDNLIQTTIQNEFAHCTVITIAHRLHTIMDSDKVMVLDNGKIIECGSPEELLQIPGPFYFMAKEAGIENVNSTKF

`C/C=C/C[C@@H](C)[C@@H](O)[C@H]1C(=O)N[C@@H](C(C)C)C(=O)N(C)[C@H](C)C(=O)N(C)[C@@H](C(C)C)C(=O)N[C@@H]([C@@H](C)CC)C(=O)N(C)[C@@H](CC(C)C)C(=O)NCC(=O)O[C@H](C(C)C)C(=O)N(C)[C@@H](CC(C)C)C(=O)N[C@@H](CC(C)C)C(=O)N(C)[C@@H](C(C)C)C(=O)N1C` [(Ic), cyclo-(MeBmt-Val-D-MeAla-MeVal-Ile-MeLeu-Gly-D-Hiv-MeLeu-Leu-MeVal)] (cyclo(G[dHiv][NMeL]L[NMeV][MeBmt]V[dNMeA][NMeV]I[NMeL])): a half-maximal effect in data set [1] (EC50) was put at 22 nM. In data set [2], the CC50 (commonly the concentration giving 50% cytotoxicity) stood at 86900 nM. The IC50 (usually the midpoint of a concentration-inhibition curve) in data set [3] was determined as 984 nM; in data set [4], 160 nM; in data set [5], 2200 nM; in data set [6] it was 2300 nM; in data set [7] (probe taurocholate, CHO cells) it was 30000 nM. In data set [4], the “BSEP fold Debio 025” value came to 1.5. Further, the “MRP2 fold Debio 025” value in data set [5] was 6.6. Moreover, the “OATP1B fold Debio 025” value in data set [6] was found to be 0.18. In data set [7], the “NTCP fold Debio 025” value is on record as 0.11.
Take `C/C=C/C[C@@H](C)[C@@H](O)[C@H]1C(=O)N[C@@H](CC)C(=O)N(C)[C@H](C)C(=O)N(C)[C@@H](C(C)C)C(=O)N[C@@H](C(C)C)C(=O)N(C)[C@@H](C)C(=O)N[C@@H](C)C(=O)O[C@H](C(C)C)C(=O)N(C)[C@@H](CC(C)C)C(=O)N[C@@H](CC(C)C)C(=O)N(C)[C@@H](C(C)C)C(=O)N1C` [(Ie), cyclo-(MeBmt-Abu-D-MeAla-MeVal-Val-MeAla-Ala-D-Hiv-MeLeu-Leu-MeVal)] (cyclo(A[dHiv][NMeL]L[NMeV][MeBmt][Abu][dNMeA][NMeV]V[NMeA])): the 50% effective concentration (EC50) (usually the concentration needed to bring the measured effect to its halfway point) in data set [1] is 70 nM. The midpoint of cytotoxicity in data set [2], the CC50, lay at 8300 nM. Also, the half-inhibitory concentration (IC50) in data set [3] came out at 2000 nM; in data set [4], 600 nM; in data set [5] it was 20000 nM; in data set [6], 580 nM; in data set [7] (probe taurocholate, CHO cells) it was 26000 nM. Also, the “BSEP fold Debio 025” value in data set [4] came to 0.40. In data set [5], the “MRP2 fold Debio 025” value was 0.73. For the same molecule, in data set [6], the “OATP1B fold Debio 025” value is given as 0.72. In addition, the “NTCP fold Debio 025” value in data set [7] was 0.12.
In the case of `C/C=C/C[C@@H](C)[C@@H](O)[C@H]1C(=O)N[C@@H](C(C)C)C(=O)N(C)[C@H](C)C(=O)N(C)[C@@H](C(C)C)C(=O)N[C@@H](CC(C)C)C(=O)N(C)[C@@H](CC(C)C)C(=O)NCC(=O)O[C@H](C(C)C)C(=O)N(C)[C@@H](CC(C)C)C(=O)N[C@@H](CC(C)C)C(=O)N(C)[C@@H](C(C)C)C(=O)N1C` [(If), cyclo-(MeBmt-Val-D-MeAla-MeVal-Leu-MeLeu-Gly-D-Hiv-MeLeu-Leu-MeVal)] (cyclo(G[dHiv][NMeL]L[NMeV][MeBmt]V[dNMeA][NMeV]L[NMeL])), the concentration giving a half-maximal response (EC50) in data set [1] was found to be 25 nM. This molecule also returned a CC50 in data set [2] of 81800 nM. Also, the IC50 stood at 7720 nM in data set [3], 480 nM in data set [4] and 15000 nM in data set [6]. Further, the “BSEP fold Debio 025” value in data set [4] was found to be 0.50. The “MRP2 IC50” value in data set [5] is on record as “n.i”. For the same molecule, in data set [6], the “OATP1B fold Debio 025” value was 0.03. In addition, the “NTCP IC50” value in data set [7] (probe taurocholate, CHO cells) is listed as “n.i”.
The molecule `C/C=C/C[C@@H](C)[C@@H](O)[C@H]1C(=O)N[C@@H](CC)C(=O)N(C)[C@H](C)C(=O)N(CC)[C@@H](C(C)C)C(=O)N[C@@H](CC(C)C)C(=O)N(C)[C@@H](CC(C)C)C(=O)N[C@@H](C)C(=O)O[C@H](C(C)C)C(=O)N(C)[C@@H](CC(C)C)C(=O)N[C@@H](CC(C)C)C(=O)N(C)[C@@H](C(C)C)C(=O)N1C` [(Ib), cyclo-(MeBmt-Abu-D-MeAla-EtVal-Leu-MeLeu-Ala-D-Hiv-MeLeu-Leu-MeVal)] (cyclo(A[dHiv][NMeL]L[NMeV][MeBmt][Abu][dNMeA][NEtVal]L[NMeL])) yielded an EC50 in data set [1] of 37 nM. The molecule further showed a cytotoxic concentration (CC50) in data set [2] of 52300 nM. For the same molecule, the 50% inhibitory concentration (IC50) in data set [3] was 9440 nM; in data set [4], 150 nM; in data set [6], 6200 nM; in data set [7] (probe taurocholate, CHO cells), 65000 nM. The “BSEP fold Debio 025” value in data set [4] was 1.6. The “MRP2 IC50” value in data set [5] was “n.i”. Further, the “OATP1B fold Debio 025” value in data set [6] was determined as 0.07. In addition, the “NTCP fold Debio 025” value in data set [7] worked out at 0.05.

For the origin of these results see US8501683B2, “Cycloundecadepsipeptide compounds and use of said compounds as a medicament” (priority 2008, dated 2013).
